# Experimental data published in ChEMBL document CHEMBL3507680, “University of Dundee, Gates Library screen for HepG2 cell viability”.
# Assay: Human HepG2 cell viability assay in 384 well format
# Format: toxicity, cell-based
# Parameters: dose 125 nL, time 70.5 hour; cytotoxicity at 70.5 h: concentration not given beside the values
# Settings: HepG2 cells, read-out: Inhibition
smiles,measurement,value
CCN(Cc1nc2c(cnn2C)c(=O)[nH]1)c1cc(C)ccc1C,cytotoxicity at 70.5 h,-15.9%
O=C(C1CCCN1c1ncnc2ccsc12)N1CCSCC1 (stereo not given),cytotoxicity at 70.5 h,-9.24%
Cn1cnc2c1CCN(Cc1nc(-c3ccco3)no1)C2,cytotoxicity at 70.5 h,8.47%
O=C(c1ccc(-n2ccnc2)nn1)N1CCCCC1Cn1cccn1 (stereo not given),cytotoxicity at 70.5 h,-5.22%
CC(CO)N1CCN(C(=O)OC(C)(C)C)CC1 (stereo not given),cytotoxicity at 70.5 h,-6.8%
Cc1cccc(-c2nc(CN3CCn4c(nnc4C4CC4)C3)no2)c1,cytotoxicity at 70.5 h,-12.1%
COc1ccc(Nc2ncccc2C#N)cc1N1CCCC1=O,cytotoxicity at 70.5 h,5.71%
Cc1nc(CN2CCCN(Cc3nc4c(F)cccc4[nH]3)CC2)no1,cytotoxicity at 70.5 h,-10.4%
Cc1nc(C2CCCN2CCCn2c(=O)oc3ccccc32)no1 (stereo not given),cytotoxicity at 70.5 h,19.1%
CC(C)=CCN1CCN(C(=O)C2CC2)CC1,cytotoxicity at 70.5 h,2.37%
O=C(Nc1cccnc1-n1cccn1)N1CCCC(N2CCCC2)C1 (stereo not given),cytotoxicity at 70.5 h,-4.62%
CN(C)c1ccc(CNCc2ccc(N3CCOCC3)cc2)cn1,cytotoxicity at 70.5 h,-9.01%
Cc1cc(N(C)CCOc2ccccc2F)nc(N)n1,cytotoxicity at 70.5 h,-2.43%
COc1ccccc1OCCN(C)c1cc(C)nc(N)n1,cytotoxicity at 70.5 h,18.7%
CN(C)c1cc(CNCc2ccc(N3CCOCC3)cc2)ccn1,cytotoxicity at 70.5 h,-6.16%
CN(C)c1ncccc1CNCc1ccc(N2CCOCC2)cc1,cytotoxicity at 70.5 h,18.9%
c1cnn(C2CN(c3ncnc4[nH]ccc34)C2)c1,cytotoxicity at 70.5 h,-0.76%
Cc1cc(C)n(C2CN(c3ncnc4[nH]ccc34)C2)n1,cytotoxicity at 70.5 h,-3.24%
Cc1cnn(C2CN(c3ncnc4[nH]ccc34)C2)c1,cytotoxicity at 70.5 h,-3.84%
CC(C)CCN(C(=O)CCn1cc(S(N)(=O)=O)cn1)C1CC1,cytotoxicity at 70.5 h,-1.68%
Cc1ccccc1N(CC(=O)NCCc1nnc2n1CCC2)S(C)(=O)=O,cytotoxicity at 70.5 h,-4.09%
Cn1cnc2c1CCN(Cc1ccc(Cl)c3cccnc13)C2,cytotoxicity at 70.5 h,15.6%
Cn1nnnc1SC1CCN(c2ccccc2Cl)C1=O (stereo not given),cytotoxicity at 70.5 h,-2.66%
Cn1cc(C2CCCN2C(=O)Cn2c(=O)oc3ccccc32)cn1 (stereo not given),cytotoxicity at 70.5 h,-4.25%
O=C1C(Sc2nnnn2C2CC2)CCN1c1ccccc1F (stereo not given),cytotoxicity at 70.5 h,-3.39%
Cn1cnc2c1CCN(Cc1c(Cl)ccc3cccnc13)C2,cytotoxicity at 70.5 h,0.125%
CS(=O)(=O)N(Cc1ccon1)c1cccc(Br)c1,cytotoxicity at 70.5 h,-1.5%
Cc1ccc(CN(C)c2cc(N3CCCC3CO)ncn2)s1 (stereo not given),cytotoxicity at 70.5 h,-4.83%
Cn1nnnc1SC1CCCN(c2ccccc2Cl)C1=O (stereo not given),cytotoxicity at 70.5 h,-1.81%
CN(C)c1ccc(C(=O)NCc2ccc(N3CCOCC3)cc2)cn1,cytotoxicity at 70.5 h,14.5%
CCc1nnc(C(C)N2CCc3cncnc3C2)o1 (stereo not given),cytotoxicity at 70.5 h,-3.77%
Cc1cc(CNC2(c3ccc(Cl)cc3)CC2)no1,cytotoxicity at 70.5 h,-2.02%
CC(=O)N1CCN(CC=C(C)C)CC1,cytotoxicity at 70.5 h,-6.01%
CC(c1nnc(-c2ccccc2)o1)N1CCc2cncnc2C1 (stereo not given),cytotoxicity at 70.5 h,-4.24%
Cc1ccsc1CN(C)c1cc(N2CCCC2CO)ncn1 (stereo not given),cytotoxicity at 70.5 h,-3.13%
COc1cccc2c1N(C(=O)c1ccc(C)nc1)CCC2,cytotoxicity at 70.5 h,4.1%
O=C(c1ccc2c(c1)CCO2)N1CCN(c2ncccn2)CC1,cytotoxicity at 70.5 h,2.69%
CCCn1ccnc1SCCNS(=O)(=O)c1ccccc1,cytotoxicity at 70.5 h,-1.16%
CCN(Cc1noc(C(C)C)n1)Cc1ccc(C#N)cc1F,cytotoxicity at 70.5 h,27.6%
N#Cc1c(Cl)nsc1N1CCN(CC2CC2)CC1,cytotoxicity at 70.5 h,2.5%
COc1ccc(C)c2c1N(C(=O)c1cnc3onc(C)c3c1)CCC2,cytotoxicity at 70.5 h,2.65%
COc1ccc(C)c2c1N(C(=O)c1ccc3nnc(C)n3c1)CCC2,cytotoxicity at 70.5 h,-2.94%
CCCN(CC(F)(F)F)C(=O)c1cc(F)cc2[nH]cnc12,cytotoxicity at 70.5 h,0.747%
CC(C)c1nc(/C=C/c2ccc(O)c(Cl)c2)ncc1C(=O)O,cytotoxicity at 70.5 h,-4.86%
CC(C)(C#N)c1ccc(NS(=O)(=O)CC2CCCCO2)cc1 (stereo not given),cytotoxicity at 70.5 h,-0.0974%
N#Cc1cccc(S(=O)(=O)N2CC(CC(=O)O)c3ccccc32)c1 (stereo not given),cytotoxicity at 70.5 h,-4.94%
CC(C)c1nc(/C=C/c2cnn(-c3ccccc3)c2)ncc1C(=O)O,cytotoxicity at 70.5 h,-1.23%
CNS(=O)(=O)CC(=O)NC(C)Cc1ccccc1Br (stereo not given),cytotoxicity at 70.5 h,3.97%
CC(C)c1nnc(NCCS(C)(=O)=O)s1,cytotoxicity at 70.5 h,-0.429%
CNS(=O)(=O)CC(=O)NC(C)Cc1ccc(Br)cc1 (stereo not given),cytotoxicity at 70.5 h,2.68%
CNS(=O)(=O)CC(=O)NC(C)Cc1ccc(-c2ccccc2)cc1 (stereo not given),cytotoxicity at 70.5 h,1.33%
CCNC(=O)NC1CN(Cc2ccncc2Cl)C[C@@H]1OC (stereo not given in full),cytotoxicity at 70.5 h,28.4%
Cc1ccc(-c2ncc(CNc3cnccc3CO)s2)cc1,cytotoxicity at 70.5 h,3.65%
OCc1ccncc1NCc1cnc(-c2ccccn2)s1,cytotoxicity at 70.5 h,0.118%
CN(C)C(=O)Cc1ccccc1NCc1cccc2cccnc12,cytotoxicity at 70.5 h,57.4%
CCN(Cc1noc(C2CC2)n1)Cc1ccc(C#N)cc1F,cytotoxicity at 70.5 h,1.6%
Cc1cnn(CCNCc2c(C)nn(Cc3ccccc3)c2C)c1,cytotoxicity at 70.5 h,23.6%
COCCN(CCOC)C(=O)c1cccc(Cn2nc(C)cc2C)c1,cytotoxicity at 70.5 h,0.115%
CCN(CCC(=O)OC)C(=O)c1cc(F)cc2[nH]cnc12,cytotoxicity at 70.5 h,0.0493%
CN(C)c1ccc(CNCc2cnc(N3CCOCC3)nc2)cn1,cytotoxicity at 70.5 h,2.93%
